Laboratory results: ChEMBL document CHEMBL5291721, “A preclinical secondary pharmacology resource illuminates target-adverse drug reaction associations of marketed drugs” (Nat Commun, 2023)

Tests used:
[1] = target: Delta-type opioid receptor (Homo sapiens, UniProt P41143)
[2] = target: T1, Gamma-aminobutyric acid receptor subunit alpha-1/alpha-2/beta-2/gamma-2 (Homo sapiens, UniProt P14867+P18507+P47869+P47870); format: functional, cell-based
[3] = target: 3',5'-cyclic-AMP phosphodiesterase 4D (Homo sapiens, UniProt Q08499); format: functional
[4] = target: T2, Muscarinic acetylcholine receptor M2 (Homo sapiens, UniProt P08172); format: functional, cell-based
T2 sequence (P08172 whole entry): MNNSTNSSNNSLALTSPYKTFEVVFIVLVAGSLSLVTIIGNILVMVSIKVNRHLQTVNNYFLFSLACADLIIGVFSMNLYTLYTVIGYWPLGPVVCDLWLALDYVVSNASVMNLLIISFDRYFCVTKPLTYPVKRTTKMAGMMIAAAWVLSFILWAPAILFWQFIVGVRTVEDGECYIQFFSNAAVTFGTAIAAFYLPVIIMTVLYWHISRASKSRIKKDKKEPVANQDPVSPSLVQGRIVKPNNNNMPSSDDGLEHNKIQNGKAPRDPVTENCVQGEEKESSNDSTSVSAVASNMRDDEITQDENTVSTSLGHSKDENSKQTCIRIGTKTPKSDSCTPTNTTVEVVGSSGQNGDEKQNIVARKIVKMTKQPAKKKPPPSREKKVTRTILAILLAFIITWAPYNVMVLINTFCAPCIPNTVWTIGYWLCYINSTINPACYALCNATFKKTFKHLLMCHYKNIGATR

Progesterone receptor = target: T3, Progesterone receptor (Homo sapiens, UniProt P06401); format: functional
T3 sequence (P06401 whole entry): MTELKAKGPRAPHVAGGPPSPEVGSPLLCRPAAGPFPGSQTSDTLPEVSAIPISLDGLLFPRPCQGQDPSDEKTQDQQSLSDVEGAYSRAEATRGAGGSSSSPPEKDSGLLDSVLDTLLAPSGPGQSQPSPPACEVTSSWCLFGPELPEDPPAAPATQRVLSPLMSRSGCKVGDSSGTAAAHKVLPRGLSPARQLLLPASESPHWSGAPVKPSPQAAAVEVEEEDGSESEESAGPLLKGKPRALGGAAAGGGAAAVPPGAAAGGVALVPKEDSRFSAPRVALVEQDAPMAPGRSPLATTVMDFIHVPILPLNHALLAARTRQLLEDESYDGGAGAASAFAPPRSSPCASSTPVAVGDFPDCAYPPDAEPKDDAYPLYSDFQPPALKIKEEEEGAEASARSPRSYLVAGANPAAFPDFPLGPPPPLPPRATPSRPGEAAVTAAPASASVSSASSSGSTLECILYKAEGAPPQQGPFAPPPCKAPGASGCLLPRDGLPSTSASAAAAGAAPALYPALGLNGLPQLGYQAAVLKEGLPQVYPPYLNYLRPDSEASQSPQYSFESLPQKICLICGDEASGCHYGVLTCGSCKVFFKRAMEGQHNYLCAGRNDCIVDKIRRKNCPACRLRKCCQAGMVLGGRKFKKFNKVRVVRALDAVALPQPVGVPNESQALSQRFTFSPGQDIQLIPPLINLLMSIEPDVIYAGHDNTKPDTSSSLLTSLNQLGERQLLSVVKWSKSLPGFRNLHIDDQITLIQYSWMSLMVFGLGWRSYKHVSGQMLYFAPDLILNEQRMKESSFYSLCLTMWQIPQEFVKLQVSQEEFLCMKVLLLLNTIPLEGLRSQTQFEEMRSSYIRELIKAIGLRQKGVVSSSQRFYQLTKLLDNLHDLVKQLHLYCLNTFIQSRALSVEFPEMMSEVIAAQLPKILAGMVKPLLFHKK

[5] = target: T1, Gamma-aminobutyric acid receptor subunit alpha-1/alpha-2/beta-2/gamma-2; format: functional, cell-based; remark: listed apart in the source
[6] = target: 5-hydroxytryptamine receptor 2A (Homo sapiens, UniProt P28223); format: functional, cell-based
Motilin receptor = Motilin receptor (Homo sapiens, UniProt O43193)
[7] = target: T4, Endothelin receptor type B (Homo sapiens, UniProt P24530)
T4 sequence (P24530 whole entry): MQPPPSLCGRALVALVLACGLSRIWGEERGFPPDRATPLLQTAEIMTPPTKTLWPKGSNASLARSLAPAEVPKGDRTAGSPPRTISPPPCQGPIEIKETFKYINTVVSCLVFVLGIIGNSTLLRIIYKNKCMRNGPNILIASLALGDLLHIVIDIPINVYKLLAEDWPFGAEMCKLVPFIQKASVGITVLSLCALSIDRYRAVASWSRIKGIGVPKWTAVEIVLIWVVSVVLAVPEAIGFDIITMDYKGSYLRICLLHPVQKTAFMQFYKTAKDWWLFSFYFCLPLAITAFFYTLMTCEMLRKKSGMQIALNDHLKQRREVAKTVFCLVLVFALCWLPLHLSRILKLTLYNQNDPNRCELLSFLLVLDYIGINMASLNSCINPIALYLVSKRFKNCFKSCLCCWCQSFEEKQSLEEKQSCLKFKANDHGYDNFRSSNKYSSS

D(1A) dopamine receptor = D(1A) dopamine receptor (Homo sapiens, UniProt P21728)
[8] = target: Voltage-dependent L-type calcium channel subunit alpha-1C (Rattus norvegicus, UniProt P22002); format: functional
[9] = target: T5, Corticotropin-releasing factor receptor 1 (Homo sapiens, UniProt P34998)
T5 sequence (P34998 whole entry): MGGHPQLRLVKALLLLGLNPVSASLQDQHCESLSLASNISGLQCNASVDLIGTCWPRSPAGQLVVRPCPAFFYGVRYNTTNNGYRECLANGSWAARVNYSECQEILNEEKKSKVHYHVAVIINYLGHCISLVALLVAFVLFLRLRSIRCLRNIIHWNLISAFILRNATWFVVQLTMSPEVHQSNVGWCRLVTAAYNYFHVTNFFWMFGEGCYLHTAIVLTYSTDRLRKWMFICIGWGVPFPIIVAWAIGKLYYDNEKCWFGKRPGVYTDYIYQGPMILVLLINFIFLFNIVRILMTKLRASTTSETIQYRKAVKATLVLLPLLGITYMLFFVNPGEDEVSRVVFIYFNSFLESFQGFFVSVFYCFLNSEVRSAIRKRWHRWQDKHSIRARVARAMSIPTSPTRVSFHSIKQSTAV
Further: assay procedure not described here.

T1 sequence (P14867 whole entry): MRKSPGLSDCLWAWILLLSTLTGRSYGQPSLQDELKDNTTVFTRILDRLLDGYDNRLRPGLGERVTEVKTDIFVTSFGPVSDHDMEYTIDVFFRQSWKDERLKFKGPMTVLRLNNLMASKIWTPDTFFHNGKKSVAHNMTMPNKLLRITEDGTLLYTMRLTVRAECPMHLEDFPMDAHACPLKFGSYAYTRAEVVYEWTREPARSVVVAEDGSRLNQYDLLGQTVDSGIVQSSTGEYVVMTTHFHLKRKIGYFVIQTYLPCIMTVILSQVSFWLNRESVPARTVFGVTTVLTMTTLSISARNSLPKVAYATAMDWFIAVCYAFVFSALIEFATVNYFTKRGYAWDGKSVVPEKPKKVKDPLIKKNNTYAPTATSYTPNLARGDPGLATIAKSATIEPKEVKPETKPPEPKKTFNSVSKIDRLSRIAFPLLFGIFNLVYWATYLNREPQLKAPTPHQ
T1 sequence (P47870 whole entry): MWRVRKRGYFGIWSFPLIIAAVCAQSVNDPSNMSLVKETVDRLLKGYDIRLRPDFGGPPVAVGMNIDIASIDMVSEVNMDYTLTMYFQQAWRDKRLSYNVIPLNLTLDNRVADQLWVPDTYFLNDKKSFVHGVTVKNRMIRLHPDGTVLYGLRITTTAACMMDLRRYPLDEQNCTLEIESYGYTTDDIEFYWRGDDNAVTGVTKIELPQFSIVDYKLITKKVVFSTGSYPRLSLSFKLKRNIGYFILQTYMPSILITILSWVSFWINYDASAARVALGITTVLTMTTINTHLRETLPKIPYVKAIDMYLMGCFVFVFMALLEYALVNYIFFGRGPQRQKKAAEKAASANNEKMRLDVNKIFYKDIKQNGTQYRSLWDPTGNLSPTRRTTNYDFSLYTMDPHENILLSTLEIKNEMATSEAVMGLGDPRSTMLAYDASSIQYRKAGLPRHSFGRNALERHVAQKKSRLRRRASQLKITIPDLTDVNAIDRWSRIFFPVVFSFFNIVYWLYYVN
T1 sequence (P18507 whole entry): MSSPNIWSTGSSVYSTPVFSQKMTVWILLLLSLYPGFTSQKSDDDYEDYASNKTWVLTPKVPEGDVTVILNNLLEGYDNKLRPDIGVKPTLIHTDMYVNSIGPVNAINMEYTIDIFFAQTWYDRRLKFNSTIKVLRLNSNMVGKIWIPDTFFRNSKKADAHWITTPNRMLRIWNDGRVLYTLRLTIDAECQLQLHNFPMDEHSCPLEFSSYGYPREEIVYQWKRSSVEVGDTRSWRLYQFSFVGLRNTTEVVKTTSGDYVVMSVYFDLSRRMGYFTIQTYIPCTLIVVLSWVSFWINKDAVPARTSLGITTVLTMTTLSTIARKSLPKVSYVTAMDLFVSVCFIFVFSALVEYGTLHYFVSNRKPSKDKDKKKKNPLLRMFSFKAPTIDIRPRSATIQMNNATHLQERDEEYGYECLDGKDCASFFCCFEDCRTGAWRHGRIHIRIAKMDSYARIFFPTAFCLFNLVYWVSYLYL
T1 sequence (P47869 whole entry): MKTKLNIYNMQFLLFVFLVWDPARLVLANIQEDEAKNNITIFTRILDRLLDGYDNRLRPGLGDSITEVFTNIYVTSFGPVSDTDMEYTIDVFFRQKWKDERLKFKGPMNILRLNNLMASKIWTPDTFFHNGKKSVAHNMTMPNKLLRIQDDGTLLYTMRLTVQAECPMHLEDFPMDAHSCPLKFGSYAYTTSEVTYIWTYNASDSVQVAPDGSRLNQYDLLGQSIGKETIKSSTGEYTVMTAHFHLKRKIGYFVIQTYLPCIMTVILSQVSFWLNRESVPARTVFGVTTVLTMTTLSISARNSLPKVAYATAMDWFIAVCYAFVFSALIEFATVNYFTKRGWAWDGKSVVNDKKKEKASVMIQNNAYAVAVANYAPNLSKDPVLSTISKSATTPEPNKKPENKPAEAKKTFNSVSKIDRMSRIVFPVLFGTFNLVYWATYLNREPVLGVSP
Sequence of D(1A) dopamine receptor (P21728 whole entry): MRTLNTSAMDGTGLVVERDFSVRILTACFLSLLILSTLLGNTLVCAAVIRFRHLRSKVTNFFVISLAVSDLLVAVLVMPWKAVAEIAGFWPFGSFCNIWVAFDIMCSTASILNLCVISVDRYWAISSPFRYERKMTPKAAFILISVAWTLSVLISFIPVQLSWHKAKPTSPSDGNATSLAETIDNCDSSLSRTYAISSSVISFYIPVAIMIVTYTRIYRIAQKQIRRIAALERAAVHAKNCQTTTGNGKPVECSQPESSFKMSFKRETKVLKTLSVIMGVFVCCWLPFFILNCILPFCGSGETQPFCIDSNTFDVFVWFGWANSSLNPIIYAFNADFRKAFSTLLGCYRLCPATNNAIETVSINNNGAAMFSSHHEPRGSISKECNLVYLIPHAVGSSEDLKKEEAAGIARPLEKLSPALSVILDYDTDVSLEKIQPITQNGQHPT
Sequence of Motilin receptor (O43193 whole entry): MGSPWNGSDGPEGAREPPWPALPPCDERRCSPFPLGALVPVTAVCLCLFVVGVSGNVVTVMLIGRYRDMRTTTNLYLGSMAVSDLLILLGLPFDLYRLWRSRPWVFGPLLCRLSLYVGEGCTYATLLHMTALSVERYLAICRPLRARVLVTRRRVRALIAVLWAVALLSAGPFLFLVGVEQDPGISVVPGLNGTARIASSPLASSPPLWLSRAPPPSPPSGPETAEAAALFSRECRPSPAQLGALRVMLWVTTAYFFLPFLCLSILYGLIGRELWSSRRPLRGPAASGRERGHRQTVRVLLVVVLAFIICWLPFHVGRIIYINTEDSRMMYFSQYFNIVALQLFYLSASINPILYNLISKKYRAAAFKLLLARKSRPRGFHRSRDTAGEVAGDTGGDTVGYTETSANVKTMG
Sequence of Delta-type opioid receptor (P41143 whole entry): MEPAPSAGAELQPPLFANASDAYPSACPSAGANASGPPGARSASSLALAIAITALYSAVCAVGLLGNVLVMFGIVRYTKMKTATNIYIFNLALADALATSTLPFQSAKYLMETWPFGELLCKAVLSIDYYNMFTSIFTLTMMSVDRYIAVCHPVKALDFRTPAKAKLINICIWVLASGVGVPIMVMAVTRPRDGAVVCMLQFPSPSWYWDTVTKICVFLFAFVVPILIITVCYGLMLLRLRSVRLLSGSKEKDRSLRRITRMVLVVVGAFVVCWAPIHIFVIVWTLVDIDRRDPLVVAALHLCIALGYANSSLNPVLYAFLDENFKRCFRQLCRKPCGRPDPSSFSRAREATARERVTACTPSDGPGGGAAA
Sequence of 3',5'-cyclic-AMP phosphodiesterase 4D (Q08499 whole entry): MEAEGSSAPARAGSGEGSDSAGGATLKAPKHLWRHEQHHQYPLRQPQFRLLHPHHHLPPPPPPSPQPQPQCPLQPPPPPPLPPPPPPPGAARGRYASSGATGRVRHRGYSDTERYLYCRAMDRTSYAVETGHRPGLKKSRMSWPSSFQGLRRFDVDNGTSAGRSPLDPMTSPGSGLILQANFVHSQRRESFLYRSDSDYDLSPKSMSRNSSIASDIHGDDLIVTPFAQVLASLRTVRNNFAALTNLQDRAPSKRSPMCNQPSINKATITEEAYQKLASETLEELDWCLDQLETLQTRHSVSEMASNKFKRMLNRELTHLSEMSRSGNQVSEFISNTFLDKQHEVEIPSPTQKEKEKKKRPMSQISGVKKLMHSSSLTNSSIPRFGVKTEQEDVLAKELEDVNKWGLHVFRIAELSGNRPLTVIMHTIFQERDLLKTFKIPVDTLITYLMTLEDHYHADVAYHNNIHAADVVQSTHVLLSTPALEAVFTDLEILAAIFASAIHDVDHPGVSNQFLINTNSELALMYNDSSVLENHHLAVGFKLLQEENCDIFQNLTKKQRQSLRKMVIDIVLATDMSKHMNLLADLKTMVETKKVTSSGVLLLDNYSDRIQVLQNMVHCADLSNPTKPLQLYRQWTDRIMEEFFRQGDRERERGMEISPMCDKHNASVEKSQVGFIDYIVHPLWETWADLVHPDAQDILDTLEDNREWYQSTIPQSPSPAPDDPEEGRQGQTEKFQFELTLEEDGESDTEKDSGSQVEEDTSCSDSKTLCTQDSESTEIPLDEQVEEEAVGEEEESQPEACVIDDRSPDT
Sequence of 5-hydroxytryptamine receptor 2A (P28223 whole entry): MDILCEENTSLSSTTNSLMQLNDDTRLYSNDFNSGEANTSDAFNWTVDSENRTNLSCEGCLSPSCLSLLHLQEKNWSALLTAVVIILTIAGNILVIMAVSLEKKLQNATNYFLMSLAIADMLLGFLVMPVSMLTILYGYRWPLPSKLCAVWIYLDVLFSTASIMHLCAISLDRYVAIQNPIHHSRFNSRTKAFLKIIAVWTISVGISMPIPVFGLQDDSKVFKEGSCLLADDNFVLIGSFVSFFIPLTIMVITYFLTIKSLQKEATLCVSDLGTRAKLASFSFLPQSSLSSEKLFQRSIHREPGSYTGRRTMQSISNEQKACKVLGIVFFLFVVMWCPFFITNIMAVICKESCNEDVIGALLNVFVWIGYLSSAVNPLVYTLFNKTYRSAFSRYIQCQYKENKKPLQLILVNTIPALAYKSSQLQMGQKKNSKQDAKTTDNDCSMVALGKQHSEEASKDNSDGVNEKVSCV

AC50 [7] | AC50 (D(1A) dopamine receptor) | AC50 [8] | AC50 [9] | SMILES | AC50 [1] | AC50 [2] | AC50 [3] | AC50 [4] | AC50 (Progesterone receptor) | AC50 [5] | AC50 [6] | AC50 (Motilin receptor)
– | – | – | – | CC(=N)N1CC[C@H](SC2=C(C(=O)O)N3C(=O)[C@H]([C@@H](C)O)[C@H]3C2)C1 | 290 µM | > 800 µM | > 300 µM | > 300 µM | > 300 µM | > 2400 µM | > 300 µM | > 300 µM
> 30 µM | > 10 µM | > 30 µM | > 30 µM | CC1(C)S[C@@H]2[C@H](NC(=O)[C@H](N)c3ccc(O)cc3)C(=O)N2[C@H]1C(=O)O [AMOXICILLIN] | > 30 µM | – | > 30 µM | > 30 µM | > 30 µM | – | – | > 30 µM
– | – | – | – | CO/N=C(\C(=O)N[C@@H]1C(=O)N2C(C(=O)O)=C(COC(N)=O)CS[C@H]12)c1ccco1 [CEFUROXIME] | > 30 µM | > 30 µM | > 30 µM | > 30 µM | – | > 30 µM | > 30 µM | > 30 µM
> 30 µM | > 10 µM | > 30 µM | > 30 µM | COC(=O)[C@H](c1ccccc1Cl)N1CCc2sccc2C1 [CLOPIDOGREL] | > 30 µM | > 30 µM | > 30 µM | 27 µM | > 30 µM | > 30 µM | – | > 30 µM
– | – | – | – | C#Cc1cccc(Nc2ncnc3cc(OCCOC)c(OCCOC)cc23)c1 [ERLOTINIB] | > 30 µM | > 30 µM | > 30 µM | > 30 µM | > 30 µM | > 30 µM | – | > 30 µM
– | – | – | – | CCC(=O)O[C@@H](O[P@](=O)(CCCCc1ccccc1)CC(=O)N1C[C@H](C2CCCCC2)C[C@H]1C(=O)O)C(C)C [FOSINOPRIL] | > 30 µM | > 30 µM | > 30 µM | > 30 µM | – | > 30 µM | > 30 µM | –
– | – | – | – | C[C@H]1Oc2cc(cnc2N)-c2c(nn(C)c2C#N)CN(C)C(=O)c2ccc(F)cc21 [LORLATINIB] | > 30 µM | > 30 µM | 16 µM | > 30 µM | > 30 µM | > 30 µM | > 30 µM | > 30 µM
– | – | – | – | CN(C)c1cc(CNCC(C)(C)C)c(O)c2c1C[C@H]1C[C@H]3[C@H](N(C)C)C(O)=C(C(N)=O)C(=O)[C@@]3(O)C(O)=C1C2=O [OMADACYCLINE] | 27 µM | > 30 µM | > 30 µM | 24.3 µM | > 30 µM | > 30 µM | > 30 µM | > 30 µM

SMILES | AC50 [7] | AC50 (D(1A) dopamine receptor) | AC50 [8] | AC50 [9] | AC50 [1] | AC50 [2] | AC50 [3] | AC50 [4] | AC50 (Progesterone receptor) | AC50 [5] | AC50 [6] | AC50 (Motilin receptor)
Cc1cnc(NC(=O)C2=C(O)c3ccccc3S(=O)(=O)N2C)s1 [MELOXICAM] | > 30 µM | > 10 µM | > 10 µM | > 30 µM | > 10 µM | – | > 10 µM | > 10 µM | – | – | – | > 10 µM
